Source: paper PMC3519527, “Compounds from Sorindeia juglandifolia (Anacardiaceae) exhibit potent anti-plasmodial activities in vitro and in vivo” (Malaria Journal, 2012)
Where “and” joins values, the source holds several entries; their conditions need not be identical. Identical values can stand only once. Counter-ions that a name gives are not always drawn. Like-named read-outs stand apart in the source and are kept apart here. Each block holds one molecule with its values, some of them ahead of it.

Experiments:
[1] = tested on: Plasmodium berghei strain B; test: In vivo curative test in mice; set-up: species or system Plasmodium berghei in Swiss albino mice
Method: (§1) Compound 1 (2,3,6-trihydroxy benzoic acid), obtained from the fractionation of S.juglandifolia extract, was assessed in vivo using the Plasmodium berghei rodent parasite model, according to the procedure described by Okokon et al.[12] with a few modifications. Plasmodium berghei strain B (MRA-406, MR4, ATCC® Manassas Virginia) was obtained from BEI Resources and used for the experiments. Female Swiss albino mice aged eight weeks and weighing ~20 g were used for efficacy and toxicity experiments. These animals were bred in the animal house of the Faculty of Medicine, University of Yaoundé I. They were fed a standard laboratory diet (S.P.C. Ltd., Bafoussam, Cameroon) and given clean tap water ad libitum. Animal welfare requirements were strictly considered during the experiments, as described in the protocol approved by the National Ethics Committee (Reg. No.FWAIRB00001954). To start infections, a cryotube of parasites was thawed and the undiluted contents were injected immediately i.p. into naïve recipient mice. Three days after infection, the parasitaemia was evaluated daily in tail vein blood through Giemsa-stained thin smear observation under oil immersion at 100X magnification. Passage of infection into new mice consisted of an i.p. injection of 200 μL of 10^6 infected erythrocytes/mL sterile PBS. The test compound was dissolved and diluted in Tween 20: Ethanol (7:3 v/v).
(§2) Curative assays were subsequently conducted using the same setting, with animal receiving drug at daily oral dosages of 10, 30, 50 and 100 mg/kg for 5 consecutive days, starting day 3 (72 hours) after infection. Thin blood smears were made daily from the tail blood of mice and the level of parasitaemia assessed by examination of Giemsa-stained smears using a microscope at 100X magnification.

[2] = tested on: Plasmodium berghei strain B; test: In vivo suppressive test in mice; set-up: species or system Plasmodium berghei in Swiss albino mice; conditions: for SD50 (suppressive dose at 50%): oral, parasitaemia 24 h after last dose
Method: as §1
Preliminary screening of the compound consisted of a suppressive test. To achieve this, animals were infected i.p. with 200 μL of 10^6 infected erythrocytes/mL sterile PBS. Four hours after infection, duplicate batches of animals were treated as follows: four batches of six mice each were given test drug orally at respective dosages of 10, 30, 50 and 100 mg/kg, and subsequently once daily for four consecutive days. Negative controls consisted of one batch of 6 infected mice receiving no drug (dose 0), and one batch of six uninfected animals. Positive controls consisted of one batch of infected mice receiving quinine sulfate at 24 mg/kg.
as §2

recombinant falcipain-2 = biological target: T1, recombinant falcipain-2 (Plasmodium falciparum, UniProt Q8I6U4); test: Falcipain-2 inhibition (Z-Leu-Arg-AMC hydrolysis); format: biochemical; conditions: recombinant enzyme, pH 5.5, triplicate; for IC50: read-out: Falcipain-2 IC50±SD
T1 construct: made in house
T1 sequence (Q8I6U4 244-484): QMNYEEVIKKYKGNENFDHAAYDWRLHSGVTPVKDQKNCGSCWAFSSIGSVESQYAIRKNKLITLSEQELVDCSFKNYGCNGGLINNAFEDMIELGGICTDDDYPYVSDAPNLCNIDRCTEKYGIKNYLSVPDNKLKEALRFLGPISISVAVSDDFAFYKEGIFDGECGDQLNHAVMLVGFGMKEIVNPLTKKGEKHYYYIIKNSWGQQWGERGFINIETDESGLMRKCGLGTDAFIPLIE
Method: Falcipain-2 activity was measured as hydrolysis of the fluorogenic substrate benzyloxycarbonyl-Leu-Arg-7-amino-4-methyl-coumarin (Z-Leu-Arg-AMC) using a Fluoroskan II spectrofluorometer, as described previously. For inhibitor assays, recombinant falcipain-2 prepared as described previously was incubated with inhibitors (added from stocks concentrated 100- to 1,000-fold in dimethyl sulfoxide [DMSO]) with 10 mM dithiothreitol, pH 5.5, for 30 min at room temperature before the substrate (50 μM) was added. Equal concentrations of enzyme were used for each experiment. Multiple inhibitor concentrations were studied in triplicate, and the rates of hydrolysis were determined and compared to those of controls containing equal concentrations of DMSO. All values were normalized to the control activity, and IC50s were calculated with the Prism 5.0 program, with data fitted by nonlinear regression.

[3] = tested on: Plasmodium falciparum chloroquine-resistant strain W2; test: In vitro screening against Plasmodium falciparum W2 (flow cytometry, 48 h); format: cell-based; conditions: read-out: P. falciparum W2 IC50±SD
Method: Plasmodium falciparum strain W2, known to be resistant to chloroquine and other anti-malarials, was cultured in sealed flasks at 37°C, in a 3% O2, […] and 91% N2 atmosphere in RPMI 1640, 25 mM HEPES, pH 7.4, supplemented with heat inactivated 10% human serum and human erythrocytes to achieve a 2% haematocrit. Serum and erythrocytes were purified from blood voluntarily given by adults with no recent contact with malaria, and who have signed an informed consent form. Parasites were synchronized in the ring stage by serial treatment with 5% sorbitol (Sigma) and tested at 1% parasitaemia. Stock solutions of plant extracts were prepared as 1 mg/ml in DMSO, diluted as needed for individual experiments, and tested in triplicate as described previously. The stock solutions were diluted in supplemented RPMI 1640 medium so as to have at most 0.2% DMSO in the final reaction medium. Equal volumes (100μl) of inhibitors and 1% parasitaemia, 4% haematocrit culture were then added and gently mixed thoroughly. Negative controls contained equal concentrations of DMSO. Positive controls contained 1 μM chloroquine phosphate (Sigma). Cultures were incubated at 37°C for 48 h. Parasites at the ring stage were thereafter fixed by replacing the serum medium by an equal volume of 1% formaldehyde in PBS. Aliquots (5 μl) of each culture were then added to round-bottom polystyrene 96 well plates containing 150 μl of 100 mM NH4Cl, 0.1% Triton X- 100 and 1 nM YOYO-1 nuclear dye (Molecular Probes) in PBS, and the parasitaemia of treated and control cultures were compared using a Becton-Dickinson FACSort flow cytometer equipped with AMS-1 loader (Cytek Development) to count nucleated (parasitized) erythrocytes. Data acquisition was performed using Cell Quest software.

[4] = tested on: P. falciparum field isolates; test: In vitro screening against Plasmodium falciparum field isolates (Giemsa smears, 48 h); format: cell-based
Method: Plasmodium falciparum isolates were prepared as described previously. Blood was collected from outpatients presenting at the Etoug-Ebe Baptist Health Centre in Yaoundé with uncomplicated malaria. Patients older than five years of age with mono infection with P. falciparum and parasite density greater than 6,000 asexual parasites per microliter of blood were considered for inclusion in the study. Those with recent history of self-medication with anti-malarial drugs were excluded. After patients agreed to participate in the study and signed the consent form, 5 mL of blood was collected from them by venipuncture into heparinized tubes. The blood was centrifuged at 3,000 rpm for 15 min and the supernatant discarded. The pellets were suspended in 10 mL of pre-warmed RPMI 1640 medium and centrifuged again twice at 3,000 rpm for 5 min, and the supernatant was then discarded. The volume of the packed-cells was estimated and mixed with an equal amount of RPMI 1640, 25 mM HEPES, pH 7.4, and subsequently used at 4% haematocrit for experiments. Thin smears were evaluated to assess the parasitaemia, the developmental stages of parasites, and the colour, shape and size of red blood cells. Nine such isolates were prepared and subsequently used for experiments.
The activity of plant products was assessed as previously described. […] Stock solutions of plant extracts were prepared at 1 mg/ml in DMSO and diluted as needed for individual experiments in 96-well plates using RPMI 1640, to achieve a maximum final DMSO concentration of 0.2%. Chloroquine was used as positive control at 1 μM, and the negative control was an equal concentration of DMSO. To assess the susceptibility of parasites to drugs, they were maintained in RPMI 1640 supplemented with 25 mM HEPES buffer (pH 7.4), 0.05% ampicillin, and 10% AB+ human serum at 37°C, in a candle jar. To achieve this, 200 μl parasite suspensions at 4% haematocrit and 0.1%– 0.3% parasitaemia were added to 50 μl of each concentration of inhibitor in individual wells, each tested in triplicate. Cultures were incubated at 37°C for 48 h in a candle jar. To estimate the effects of inhibitors after 48 h, thin smears from treated and control cultures were fixed in methanol for 30 s, stained using fresh 5% Giemsa solution (Sigma) in phosphate buffer (pH 7.1), and examined by counting the parasitaemia per 100 erythrocytes. IC50s were calculated from curves plotting percent growth versus drug concentration using Prism 5.0 software with data fitted by nonlinear regression to the variable slope sigmoidal dose–response formula y = 100/[1 + 10^(logIC50− x)H, where H is the Hill coefficient or slope factor [5].

[5] = Plasmodium falciparum, W2, 48 h, W2 strain, 48 h, triplicate
[6] = Plasmodium falciparum, isolate E01, read-out: IC50±SD
[7] = Plasmodium falciparum, isolate E02, read-out: IC50±SD
[8] = Plasmodium falciparum, isolate E03, read-out: IC50±SD
[9] = Plasmodium falciparum, isolate E04, read-out: IC50±SD
[10] = Plasmodium falciparum, isolate E05, read-out: IC50±SD
[11] = Plasmodium falciparum, isolate E06, read-out: IC50±SD
[12] = Plasmodium falciparum, isolate E07, read-out: IC50±SD
[13] = Plasmodium falciparum, isolate E08, read-out: IC50±SD
[14] = Plasmodium falciparum, isolate E09, read-out: IC50±SD

SMILES: C=C[C@H]1C[N@@]2CC[C@H]1C[C@H]2[C@H](O)c1ccnc2ccc(OC)cc12 [Quinine sulfate, quinine sulfate, reference compound]
Mean % Suppression/Inhibition ([1]; 24 mg/kg, positive control): 89.50%
Mean % Suppression/Inhibition ([2]; 24 mg/kg, positive control): 71.34%

SMILES: C[C@@H]1CC[C@H]2[C@@H](C)C(=O)O[C@@H]3O[C@@]4(C)CC[C@@H]1[C@]32OO4 [ART, artemisinin, reference compound]
IC50 [3, 5]: 0.007 ± 0.01 µg/mL

SMILES: CC(C)C[C@H](NC(=O)[C@H]1O[C@@H]1C(=O)O)C(=O)NCCCCN=C(N)N [Compound E64, l-transepoxy-succinyl-leucylamido-(4-guanidino)-butane, reference compound]
Falcipain-2 IC50±SD (recombinant falcipain-2): 0.049 ± 0.003 µg/mL

SMILES: CCN(CC)CCCC(C)Nc1ccnc2cc(Cl)ccc12 (centres unmarked) [CQ, chloroquine, reference compound]
IC50 ([3]; Plasmodium falciparum, W2, 48 h): 0.05 ± 0.01 µg/mL
IC50 ([4]; Plasmodium falciparum, read-out: IC50 against P. falciparum isolates, span over the nine field isolates): 0.0166 to 0.0384 µg/mL
IC50 ([4]; Plasmodium falciparum, read-out: IC50±SD, isolate E01): 0.0254 ± 0.00347 µg/mL
IC50 ([4]; Plasmodium falciparum, read-out: IC50±SD, isolate E02): 0.0233 ± 0.019 µg/mL
IC50 ([4]; Plasmodium falciparum, read-out: IC50±SD, isolate E03): 0.0384 ± 0.00437 µg/mL
IC50 ([4]; Plasmodium falciparum, read-out: IC50±SD, isolate E04): 0.0272 ± 0.00072 µg/mL
IC50 ([4]; Plasmodium falciparum, read-out: IC50±SD, isolate E05): 0.0166 ± 0.00148 µg/mL
IC50 ([4]; Plasmodium falciparum, read-out: IC50±SD, isolate E06): 0.0192 ± 0.00486 µg/mL
IC50 ([4]; Plasmodium falciparum, read-out: IC50±SD, isolate E07): 0.0243 ± 0.00332 µg/mL
IC50 ([4]; Plasmodium falciparum, read-out: IC50±SD, isolate E08): 0.0187 ± 0.00094 µg/mL
IC50 ([4]; Plasmodium falciparum, read-out: IC50±SD, isolate E09): 0.0188 ± 0.00187 µg/mL

Further lines, with some results ahead:

IC50 (recombinant falcipain-2): 35.4 µM
melting point: 188.5 to 190 °C
IC50 [3, 5]: 16.5 µM
IC50 ([3]; W2 strain, 48 h, triplicate, listed as 2,3,6-trihydroxy benzoic acid (1)): 16.5 ± 0.47 µM
IC50 [4, 6]: 11.3 ± 0.92 µM
IC50 [4, 7]: 17.1 ± 0.48 µM
IC50 [4, 8]: 22 ± 0.93 µM
IC50 [4, 9]: 24.8 ± 1.04 µM
IC50 [4, 10]: 6.32 ± 0.16 µM
IC50 [4, 11]: 36.1 ± 2.01 µM
IC50 [4, 12]: 33.7 ± 0.61 µM
IC50 [4, 13]: 9.92 ± 4.82 µM
IC50 [4, 14]: 19.77 ± 0.14 µM
IC50 ([4]; Plasmodium falciparum, span over the nine field isolates, read-out: IC50 against P. falciparum isolates): 6.3 µM
IC50 ([4]; span over the nine field isolates, read-out: IC50 against P. falciparum isolates): 6.3 to 36.1 µM
SMILES: O=C(O)c1c(O)ccc(O)c1O [Compound 1, 2,3,6-trihydroxy benzoic acid]
Mean % Suppression/Inhibition ([1]; 10 mg/kg oral daily for 5 days from day 3): 20.95%
Mean % Suppression/Inhibition ([1]; 30 mg/kg oral daily for 5 days from day 3): 41.00%
Mean % Suppression/Inhibition ([1]; 50 mg/kg oral daily for 5 days from day 3): 57.27%
Mean % Suppression/Inhibition ([1]; 100 mg/kg oral daily for 5 days from day 3): 66.40%
ED50 ([1]; Plasmodium berghei, oral, parasitaemia 24 h after last dose, read-out: ED50 (effective dose at 50%)): 42.2 mg/kg
Mean % Suppression/Inhibition ([2]; 10 mg/kg oral, once daily, 24 h after last dose): 22.73%
Mean % Suppression/Inhibition ([2]; 30 mg/kg oral, once daily, 24 h after last dose): 35.95%
Mean % Suppression/Inhibition ([2]; 50 mg/kg oral, once daily, 24 h after last dose): 53.66%
Mean % Suppression/Inhibition ([2]; 100 mg/kg oral, once daily, 24 h after last dose): 69.63%
SD50 (suppressive dose at 50%) [2]: 44.9 mg/kg and 44.9 ± 1.6 mg/kg
SD50 (suppressive dose at 50%) ([2]; listed as 2,3,6-trihydroxy benzoic acid (1)): ^cSD50 = 44.9 ± 1.6 mg/kg

IC50 (recombinant falcipain-2): 6.1 µM and 6.09 µM
IC50 [3, 5]: 13 µM
IC50 ([3]; W2 strain, 48 h, triplicate, listed as 2,3,6-trihydroxy methyl benzoate (2)): 13 ± 1.63 µM
IC50 [4, 6]: 7.02 ± 0.07 µM
IC50 [4, 7]: 14.7 ± 0.15 µM
IC50 [4, 8]: 19.8 ± 0.38 µM
IC50 [4, 9]: 18.8 ± 1.04 µM
IC50 [4, 10]: 12.2 ± 0.02 µM
IC50 [4, 11]: 23.1 ± 2.01 µM
IC50 [4, 12]: 26.69 ± 0.02 µM
IC50 [4, 13]: 13.3 ± 1.85 µM
IC50 [4, 14]: 24.4 ± 0.05 µM
SMILES: COC(=O)c1c(O)ccc(O)c1O [Compound 2, 2,3,6-trihydroxy methyl benzoate]
